Reference: US20250367170A1, “TOPICAL ANGIOTENSIN II RECEPTOR BLOCKERS (ARBS) FOR TREATING EYE CONDITIONS” (The Cleveland Clinic Foundation, priority 2022, published 2025)

Legend:
Assay type in all cases: in vivo, New Zealand White rabbits
[1] = system: collagen type IV; assay: IHC collagen type IV intensity in anterior and posterior stroma after alkali burn; conditions: one month
Method: Multiplex immunohistochemistry (IHC) was performed using previously described methods^8 and primary antibodies (Table 7) confirmed by western blotting and IHC to recognize rabbit antigens or isotypic control antibodies (Thermo Fisher Scientific, Waltham, MA), and secondary fluorescent tagged antibodies (Table 7). The collagen type IV antibody (Cat. #AB769, Millipore, Temecula CA) was raised against purified human and bovine collagen type IV that had been affinity purified with human and bovine collagen type IV crosslinked to agarose and cross-absorbed by the manufacturer with human and bovine collagens type I, II, III, V and VI to eliminate cross-reactivity. This collagen type IV antibody was shown previously to bind rabbit collagen IV in IHC,^8,9 and recognizes the alpha-1/alpha-2 chains but not the alpha-3 to alpha-6 chains. The keratocan antibody is raised against peptide […]-OH (SEQ ID NO:1). This marker was used to identify keratocytes in situ. […] All corneas in each group had IHC for collagen type IV. Images from each cornea were converted to uniform 300 DPI, 875×568 pixel, files. […] The staining intensity within each box was determined with the analyze histogram function and the mean of three boxes was the intensity value in the anterior or posterior stroma for that cornea.

[2] = system: rabbit corneas after 1N NaOH alkali burn injury; assay: Slit lamp stromal opacity area and intensity (ImageJ) one month after alkali burn; conditions: topical 0.2 mg/ml losartan and/or 1% prednisolone acetate six times per day
Method: All animal treatments and care were approved by the Institutional Animal Care and Use Committee (IACUC) at the Cleveland Clinic Foundation (Cleveland, OH, USA) and the Animal Care and Use Review Office of the Department of the Army (Fort Detrick, MD). All rabbits were treated in accordance with the tenets of the ARVO Statement for the Use of Animals in Ophthalmic and Vision Research. Sixteen 10- to 15-week-old female New Zealand White rabbits weighing 2.5 to 3.0 kg each were included in this example.
(§1) Alkali injuries were produced in one eye of rabbits with previously published methods^10 using 1N sodium hydroxide (Sigma, St. Louis, MO) in balanced salt solution (BSS, 0.64% sodium chloride, 0.075% potassium chloride, 0.048% calcium chloride dihydrate, 0.03% magnesium chloride hexahydrate, 0.39% sodium acetate trihydrate, 0.17% sodium citrate dihydrate, pH 7.5, Alcon, Ft. Worth, TX) and a 5 mm diameter circular Whatman No. 1 filter paper (Cat #1001-6508, Fisher Scientific) wetted with 100 μl of 1N NaOH solution. Following the alkali burn injury, the cornea was irrigated profusely with BSS. Each injured cornea also received one drop of ciprofloxacin (Alcon, Ft. Worth, TX, USA) ten minutes after surgery and four times a day for one week and at least 15 minutes apart from the study medications.
(§2) Worth TX), at least 5 minutes apart, or 4) 50 μl of BSS.
At one month after sodium hydroxide exposure and treatments, with the rabbits under ketamine-xylazine general anesthesia, the eyes were dilated with two drops of 1% tropicamide (Akom Co., Lake Forest, IL) for thirty minutes. The study eye in each rabbit had slit lamp photographs with standardized illumination level and angle of illumination at 20× magnification with a Topcon (Oakland, NJ, USA) SL-D7 slit lamp photography system. For each study eye, the total area of opacity was determined by outlining the opacity with the freehand selection tool using ImageJ 1.53a analysis software calibrated to mm^2. The “raw internal density” in pixels for the opacified area in each cornea was also determined using ImageJ.

[3] = system: central corneal neovascularization (CNV); assay: Corneal angiography for central corneal neovascularization after alkali burn; conditions: topical six times per day, one month, all four vehicle corneas positive
Method: as §1, §2
All corneas had fluorescent angiography at the peak of dye passage in the cornea immediately after injection of 1.5 ml of 10% sodium fluorescein (McKesson, Irvine, TX) in the central ear vein with the slit lamp system and digital camera system using a “barrier filter” that only transmitted 520-530 nm, the peak of fluorescein emission, with broad illumination of the cornea, as previously described.^11

CC(=O)OCC(=O)[C@@]1(O)CC[C@H]2[C@@H]3CCC4=CC(=O)C=C[C@]4(C)[C@H]3[C@@H](O)C[C@@]21C [prednisolone acetate]
mean intensity units of collagen type IV in the anterior stroma vs vehicle [1]: trend towards a decrease | total corneal opacity area measured with ImageJ, vs BSS vehicle [2]: decreased | total opacity in pixels in the opacified area of cornea, vs vehicle BSS group [2]: trended towards decreased total opacity | corneas (of four) that developed central corneal neovascularization [3]: one
